In brackets after ≈: the same amount, converted by molar mass.
Key:
[1] = tested on: Aspergillus; test: broth dilution MIC, Aspergillus; type: cell-based, Aspergillus (flavus, fumigatus and other species); settings: for percentage of strains with MICs ≤1 mcg/ml / MIC90: Aspergillus, 37 strains; for percentage of strains with MICs ≤1 mcg/ml: Table Q; for MIC90: Table S
[2] = tested on: Candida albicans; test: broth dilution MIC, Candida albicans; type: cell-based; settings: 26 strains; for percentage of strains with MICs ≤1 mcg/ml: Table Q; for MIC90: Table S
Procedure: (§1) The in vitro antifungal activity tests were performed via conventional broth dilution methods in Sabouraud dextrose broth ("SDB") medium and Eagles Minimum Essential Medium ("EMEM") against a large number of fungi. Minimum Inhibitory Concentrations ("MICs") were measured after 24, 48 and 72 hour tests. In many cases, Minimum Fungicidial Concentrations ("MFCS") were measured after 48 and 72 hours.

[3] = tested on: Candida krusei; test: broth dilution MIC, Candida krusei; type: cell-based; settings: 16 strains; for percentage of strains with MICs ≤1 mcg/ml: Table Q; for MIC90: Pichia kudriavzevii, Table S
[4] = tested on: Candida tropicalis & stellatoidea; test: broth dilution MIC, Candida tropicalis & stellatoidea; type: cell-based; settings: 5 strains; for percentage of strains with MICs ≤1 mcg/ml: Table Q; for MIC90: Table S
Procedure: as §1

[5] = tested on: Candida glabrata; test: broth dilution MIC, Candida glabrata; type: cell-based; settings: 9 strains; for percentage of strains with MICs ≤1 mcg/ml: Table Q
Procedure: as §1

[6] = tested on: Cryptococcus neoformans; test: broth dilution MIC, Cryptococcus neoformans; type: cell-based; settings: 3 strains; for percentage of strains with MICs ≤1 mcg/ml: Table Q; for MIC90: Table S
Procedure: as §1

[7] = tested on: Dermatophytes; test: broth dilution MIC, Dermatophytes; type: cell-based, T. rubrum, T. mentagrophytes, and T. tonsurans; settings: 6 strains; for percentage of strains with MICs ≤1 mcg/ml: Table Q; for MIC90: Table S
[8] = tested on: Aspergillus; test: broth dilution MFC, Aspergillus; type: cell-based, Aspergillus (flavus, fumigatus and other species); settings: for percentage of strains with MFCs ≤1 mcg/ml: Aspergillus, 37 strains, Table R
[9] = tested on: Candida krusei; test: broth dilution MFC, Candida krusei; type: cell-based; settings: 16 strains, Table R
Procedure: as §1

[10] = tested on: Candida glabrata; test: broth dilution MFC, Candida glabrata; type: cell-based; settings: 9 strains, Table R
Procedure: as §1

[11] = tested on: Cryptococcus neoformans; test: broth dilution MFC, Cryptococcus neoformans; type: cell-based; settings: 3 strains, Table R
Procedure: as §1

[12] = tested on: Dermatophytes; test: broth dilution MFC, Dermatophytes; type: cell-based, T. rubrum, T. mentagrophytes, and T. tonsurans; settings: 6 strains, Table R
Procedure: as §1

[13] = tested on: Candida albicans; test: broth dilution MFC, Candida albicans; settings: 26 strains, Table R
Procedure: as §1

[14] = tested on: Candida tropicalis & stellatoidea; test: broth dilution MFC, Candida tropicalis & stellatoidea; settings: 5 strains, Table R
Procedure: as §1

[15] = Janssen U.S. Pat. No. 4,791,111; cited from earlier work
[16] = serum levels following oral dosing, mice; type: in vivo; settings: methyl cellulose formulation
[17] = serum levels following oral dosing, rats; type: in vivo; settings: methyl cellulose formulation
[18] = serum levels following oral dosing, dogs; type: in vivo; settings: methyl cellulose formulation
[19] = serum levels following oral dosing, monkeys; type: in vivo; settings: methyl cellulose formulation
[20] = tested on: cytochrome P-450 liver drug metabolizing enzymes; test: induction of cytochrome P-450 after oral administration in an in vivo rat model

Compound	percentage of strains with MICs ≤1 mcg/ml [1]	percentage of strains with MICs ≤1 mcg/ml [2]	percentage of strains with MICs ≤1 mcg/ml [3]	percentage of strains with MICs ≤1 mcg/ml [4]	percentage of strains with MICs ≤1 mcg/ml [5]	percentage of strains with MICs ≤1 mcg/ml [6]	percentage of strains with MICs ≤1 mcg/ml [7]	percentage of strains with MFCs ≤1 mcg/ml [8]	percentage of strains with MFCs ≤1 mcg/ml [9]	percentage of strains with MFCs ≤1 mcg/ml [10]	percentage of strains with MFCs ≤1 mcg/ml [11]	percentage of strains with MFCs ≤1 mcg/ml [12]	percentage of strains with MFCs ≤1 mcg/ml [13]	percentage of strains with MFCs ≤1 mcg/ml [14]	MIC90 [1] [µg/mL]	MIC90 [2] [µg/mL]	MIC90 [3] [µg/mL]	MIC90 [4] [µg/mL]	MIC90 [6] [µg/mL]	MIC90 [7] [µg/mL]	further results
OC(Cn1cncn1)(Cn1cncn1)c1ccc(F)cc1F [fluconazole, reference compound]	0 percentage of strains	100 percentage of strains	0 percentage of strains	100 percentage of strains	0 percentage of strains	0 percentage of strains	100 percentage of strains	0 percentage of strains	0 percentage of strains	0 percentage of strains	0 percentage of strains	0 percentage of strains	100 percentage of strains	100 percentage of strains	–	–	–	–	–	–	MIC ([1]; SDB, 37 species of Aspergillus, bounds printed with ≤, b40, read-out: geometric mean MIC): ≤ 32 µg/mL; MFC ([8]; SDB, 37 species of Aspergillus, bounds printed with ≤, b40, read-out: geometric mean MFC): ≤ 32 µg/mL
CC[C@@H]([C@H](C)O)n1ncn(-c2ccc(N3CCN(c4ccc(OC[C@@H]5CO[C@@](Cn6cncn6)(c6ccc(F)cc6F)C5)cc4)CC3)cc2)c1=O [drawing 23]	100 percentage of strains	100 percentage of strains	100 percentage of strains	100 percentage of strains	22 percentage of strains	100 percentage of strains	100 percentage of strains	62 percentage of strains	94 percentage of strains	22 percentage of strains	100 percentage of strains	83 percentage of strains	100 percentage of strains	100 percentage of strains	0.096 (≈ 0.137 µM)	0.174 (≈ 0.248 µM)	0.014 (≈ 0.02 µM)	0.117 (≈ 0.167 µM)	0.007 (≈ 0.00999 µM)	0.101 (≈ 0.144 µM)	MIC90 ([5]; Nakaseomyces glabratus, Table S): 17.1 µg/mL (≈ 24.4 µM)
CC(O)C(C)n1ncn(-c2ccc(N3CCN(c4ccc(OCC5COC(Cn6cncn6)(c6ccc(Cl)cc6Cl)O5)cc4)CC3)cc2)c1=O (single isomer, unassigned; (+)) [(+)cis-4-[4-[4-[4-[[2-2,4-dichlorophenyl)-2-(1H-1,2,4-triazol-1-ylmethyl)-1,3-dioxolan-4-yl]methoxy]phenyl]-1-piperazinyl]-2,4dihydro-2-(2-hydroxy-1-methylpropyl)-3H-1,2,4-triazol-3-one]	–	–	–	–	–	–	–	–	–	–	–	–	–	–	–	–	–	–	–	–	solubility [15]: increased solubility
CC[C@H]([C@H](C)O)n1ncn(-c2ccc(N3CCN(c4ccc(OC[C@@H]5CO[C@@](Cn6cncn6)(c6ccc(F)cc6F)C5)cc4)CC3)cc2)c1=O	100 percentage of strains	100 percentage of strains	100 percentage of strains	100 percentage of strains	22 percentage of strains	100 percentage of strains	100 percentage of strains	50 percentage of strains	88 percentage of strains	22 percentage of strains	100 percentage of strains	67 percentage of strains	100 percentage of strains	100 percentage of strains	–	–	0.058 (≈ 0.0828 µM)	0.117 (≈ 0.167 µM)	0.05 (≈ 0.0713 µM)	0.165 (≈ 0.235 µM)	–
CC[C@@H]([C@@H](C)O)n1ncn(-c2ccc(N3CCN(c4ccc(OC[C@@H]5CO[C@@](Cn6cncn6)(c6ccc(F)cc6F)C5)cc4)CC3)cc2)c1=O	100 percentage of strains	100 percentage of strains	100 percentage of strains	100 percentage of strains	33 percentage of strains	100 percentage of strains	100 percentage of strains	89 percentage of strains	100 percentage of strains	22 percentage of strains	100 percentage of strains	100 percentage of strains	100 percentage of strains	100 percentage of strains	0.112 (≈ 0.16 µM)	0.139 (≈ 0.198 µM)	0.12 (≈ 0.171 µM)	0.354 (≈ 0.505 µM)	0.101 (≈ 0.144 µM)	0.707 (≈ 1.01 µM)	–
CC[C@@H]([C@H](C)O)n1ncn(-c2ccc(N3CCN(c4ccc(OC[C@@H]5CO[C@@](Cn6cncn6)(c6ccc(F)cc6F)C5)cc4)CC3)cc2)c1=O [drawing 21]	–	–	–	–	–	–	–	–	–	–	–	–	–	–	–	–	–	–	–	–	serum levels compared to azoles of similar structure [16]: consistently higher serum levels; serum levels compared to azoles of similar structure [17]: consistently higher serum levels; serum levels compared to azoles of similar structure [18]: consistently higher serum levels; serum levels compared to azoles of similar structure [19]: consistently higher serum levels; induction of cytochrome P-450 liver drug metabolizing enzymes [20]: not inducers

From patent US5693626A, “Tetrahydrofuran antifungals” (Schering Corporation, priority 1995, dated 1997)
